Publication PMC7065129, “Phospholipase D‐derived phosphatidic acid promotes root hair development under phosphorus deficiency by suppressing vacuolar degradation of PIN‐FORMED2” (The New Phytologist, 2019)

Molecular target: T1, SNX1 (SORTING NEXIN1; AtSNX1) (Arabidopsis thaliana, UniProt Q9FG38)
T1 construct: full-length cDNA in pET51b, His-tagged (tag kept), E. coli Rosetta (DE3), Ni-NTA purified
T1 sequence (Q9FG38 1-402): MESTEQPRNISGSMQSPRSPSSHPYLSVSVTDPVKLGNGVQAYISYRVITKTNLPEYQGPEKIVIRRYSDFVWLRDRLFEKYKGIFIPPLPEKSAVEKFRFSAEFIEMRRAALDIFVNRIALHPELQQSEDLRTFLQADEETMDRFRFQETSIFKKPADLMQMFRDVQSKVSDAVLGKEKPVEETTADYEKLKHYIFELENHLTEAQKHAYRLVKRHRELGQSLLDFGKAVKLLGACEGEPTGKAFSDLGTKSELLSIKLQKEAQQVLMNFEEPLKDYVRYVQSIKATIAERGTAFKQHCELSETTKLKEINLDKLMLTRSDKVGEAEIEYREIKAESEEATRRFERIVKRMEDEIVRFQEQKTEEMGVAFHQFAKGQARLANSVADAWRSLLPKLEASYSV
Assay: liposome co-sedimentation, immunoblot
Type: binding
Details: dioleoyl PC/dioleoyl PA liposomes, pH 7.5, 25 °C; PA (acyl chains not told) also tested by lipid-protein overlay

SMILES: CCCCCCCC/C=C\CCCCCCCC(=O)OC[C@H](COP(=O)(O)O)OC(=O)CCCCCCC/C=C\CCCCCCCC [dioleoyl PA]
- liposome co-sedimentation, immunoblot: results confirmed the specific SNX1‐PA binding (Fig. 4b)
